Reference: the supplement of paper PMC10307832

Key:
Test in all cases: relative viability (nuclei count vs DMSO), 5 days (fraction); higher = more cells survive
[1] = compound: COc1cc2nccc(Oc3ccc(NC(=O)C4(C(=O)Nc5ccc(F)cc5)CC4)cc3)c2cc1OC [Cabozantinib] + CS(=O)(=O)N1CCN(Cc2cc3nc(-c4cccc5[nH]ncc45)nc(N4CCOCC4)c3s2)CC1 [Pictilisib] (partner 1 µM)
Method in brief: (§1)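 Five library-drug doses in √10 steps were combined with a fixed anchor-drug dose, or a single drug was given alone, by pin tool to lung cancer cell lines in 1536-well plates the day after seeding. Nuclei were stained and counted after 5 days. Relative viability is the nuclei count in treated wells over that in vehicle wells, taken as the median of duplicate plates.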

Zosuquidar + Alpelisib = compound: O[C@@H](COc1cccc2ncccc12)CN1CCN([C@@H]2c3ccccc3[C@@H]3[C@H](c4ccccc42)C3(F)F)CC1 [Zosuquidar] + Cc1nc(NC(=O)N2CCC[C@H]2C(N)=O)sc1-c1ccnc(C(C)(C)C(F)(F)F)c1 [Alpelisib] (partner 2 µM)
Method in brief: as §1

Cabozantinib + Foretinib = compound: COc1cc2nccc(Oc3ccc(NC(=O)C4(C(=O)Nc5ccc(F)cc5)CC4)cc3)c2cc1OC [Cabozantinib] + COc1cc2c(Oc3ccc(NC(=O)C4(C(=O)Nc5ccc(F)cc5)CC4)cc3F)ccnc2cc1OCCCN1CCOCC1 [Foretinib] (partner 0.25 µM)
Method in brief: as §1

Kobe2602 + Pemetrexed = compound: C1=CC(=CC=C1NC(=S)NNC2=C(C=C(C=C2[N+](=O)[O-])C(F)(F)F)[N+](=O)[O-])F [Kobe2602] + Nc1nc2[nH]cc(CCc3ccc(C(=O)N[C@@H](CCC(=O)O)C(=O)O)cc3)c2c(=O)[nH]1 [Pemetrexed] (partner 0.2 µM)
Method in brief: as §1

| Cell Line | relative viability ([1]; first compound 0.02 µM) | relative viability ([1]; first compound 0.06325 µM) | relative viability ([1]; first compound 0.2 µM) | relative viability ([1]; first compound 0.6325 µM) | relative viability ([1]; first compound 2 µM) | relative viability (Zosuquidar + Alpelisib; first compound 0.01 µM) | relative viability (Zosuquidar + Alpelisib; first compound 0.03162 µM) | relative viability (Zosuquidar + Alpelisib; first compound 0.1 µM) | relative viability (Zosuquidar + Alpelisib; first compound 0.3162 µM) | relative viability (Zosuquidar + Alpelisib; first compound 1 µM) | relative viability (Cabozantinib + Foretinib; first compound 0.02 µM) | relative viability (Cabozantinib + Foretinib; first compound 0.06325 µM) | relative viability (Cabozantinib + Foretinib; first compound 0.2 µM) | relative viability (Cabozantinib + Foretinib; first compound 0.6325 µM) | relative viability (Cabozantinib + Foretinib; first compound 2 µM) | relative viability (Kobe2602 + Pemetrexed; first compound 0.2 µM) | relative viability (Kobe2602 + Pemetrexed; first compound 0.6325 µM) | relative viability (Kobe2602 + Pemetrexed; first compound 2 µM) | relative viability (Kobe2602 + Pemetrexed; first compound 6.325 µM) | relative viability (Kobe2602 + Pemetrexed; first compound 20 µM) |
| --- | --- | --- | --- | --- | --- | --- | --- | --- | --- | --- | --- | --- | --- | --- | --- | --- | --- | --- | --- | --- |
| LU99A | 0.248 | 0.335 | 0.299 | 0.33 | 0.346 | 0.472 | 0.507 | 0.475 | 0.617 | 0.529 | 0.805 | 0.922 | 0.906 | 0.784 | 0.838 | 0.179 | 0.169 | 0.186 | 0.207 | 0.163 |
| LXF-289 | 0.74 | 0.727 | 0.783 | 0.69 | 0.693 | 0.994 | 1.04 | 0.97 | 1.02 | 1.01 | 0.974 | 1 | 0.934 | 1.02 | 0.993 | 0.871 | 0.896 | 0.88 | 0.861 | 0.896 |
| NCI-H23 |  | 0.476 | 0.402 | 0.358 | 0.427 | 0.669 | 0.718 | 0.728 | 0.704 | 0.687 |  | 1.03 | 0.989 | 0.904 | 0.836 | 0.653 | 0.8 | 0.82 | 0.584 | 0.742 |
| NCI-H322M | 0.443 | 0.548 |  | 0.572 | 0.526 | 0.836 | 0.739 | 0.648 | 0.859 | 0.728 | 0.967 | 1.21 | 0.899 | 0.874 | 0.931 | 0.63 | 0.646 | 0.605 | 0.652 | 0.631 |
| NCI-H358 | 0.318 | 0.35 | 0.386 | 0.387 | 0.373 | 0.914 | 0.833 | 0.832 | 0.839 | 0.893 | 0.662 | 0.839 | 0.668 | 0.662 | 0.652 | 0.196 | 0.208 | 0.17 | 0.166 | 0.178 |
| NCI-H441 | 0.459 | 0.512 | 0.49 | 0.581 | 0.404 | 0.998 | 0.766 | 0.732 |  | 0.591 | 1.25 | 0.989 | 0.986 | 1.18 | 1.18 | 0.285 | 0.217 | 0.244 | 0.279 | 0.288 |
| NCI-H460 | 0.232 | 0.44 | 0.379 | 0.23 | 0.439 | 0.398 | 0.526 | 0.539 | 0.551 | 0.529 | 1.03 | 1.04 | 0.93 | 1 | 1.07 |  | 0.0647 | 0.0722 | 0.0653 | 0.0677 |
| NCI-H520 | 0.318 | 0.291 | 0.28 | 0.312 | 0.376 | 0.941 | 0.784 | 0.778 | 0.981 | 0.837 | 0.756 | 0.756 | 0.778 | 0.804 | 0.889 | 0.709 | 0.675 | 0.559 | 0.724 | 0.772 |
